Earlier results, collected in article PMC11439047 (Nature Communications, 2024).

Tested on: P2X1 receptor
Details: cited from earlier work

O=C(O)c1cc(C(=O)O)c(C(=O)N(Cc2cccc(Oc3ccccc3)c2)[C@H]2CCCc3ccccc32)cc1C(=O)O [A-317491]
activity for the P2X1 receptor: weak activity
